The structures appear in SMILES notation. Entries after “also recorded” stand apart in the source; their conditions may differ.

Usually CLint scaled stands for the capacity of the preparation to metabolise the compound, expressed as a volume cleared per time. What is called half-life is the time in which the quantity being followed falls by half. A lower half-life goes with rapid decline.

Data set [1] is described as follows: observation of status and clinical manifestations of mice during multiple rounds of administration. Format: in vivo, C57 mice. The following applies: for mice depilated, dispirited and in poor state: after 3 consecutive rounds. How it is done:
B. The schematic diagram of the multiple dosing and the subsequent blood routine examinations in mice. The drug was administered on 3 consecutive days per week, followed by a 4-day interval, for 3 weeks continuous administration. The drug was administered by intraperitoneal injection in the afternoon on days 0, 1, 2, 7, 8, 9, 14, 15, and 16, and the blood was collected and tested in the morning on days 1, 3, 5, 8, 10, 12, 15, 17, and 19, respectively.
A single administration of A13 or A13bG was performed. Female 5-6 week old C57 mice were treated with a single intraperitoneal injection. A13 and A13bG were administered in three different dose groups of 2, 5, and 20 mg/kg. Approximately 50 μl of blood was collected from each mouse at different time points into the EDTA tubes (RAM Scientific) by means of inner canthal blood extraction, and analyzed using a haematology analyzer for a blood routine examination and a platelet counting. Multiple administrations of A13 or A13bG were performed. Female 5-6 week old C57 mice were treated with multiple intraperitoneal injections. A13 and A13bG were administered in three different dose groups of 2, 5 and 20 mg/kg, three consecutive days per week, followed by a 4-day withdrawal for 3 weeks. The time points of administration were in the afternoon of days 0, 1, 2, 7, 8, 9, 14, 15, and 16, and the time points of blood collection and testing were in the morning of days 1, 3, 5, 8, 10, 12, 15, 17, and 19, respectively.

For data set [2], the system named is HELF cells (primary human embryonic lung fibroblast). Briefly: in vitro killing of induced senescent HELF cells (CCK-8). Particulars: lung-derived, FIG. 3C. Format: cell-based. The source says: (§1) Induction of the Cellular Senescence
Data set [3] deals with E. coli-derived β-galactosidase (Escherichia coli, UniProt P00722). The data set can be described thus: in vitro enzymatic hydrolysis of the prodrug by β-galactosidase (HPLC). Format: biochemical. Particulars: role: substrate, 10 μM, β-galactosidase 10 U/μM, PBS 0.01 M pH 7.3, 37 °C, 6 hours, FIG. 2C. How it is done: Study of the Hydrolysis Reaction of A13bG
The in vitro enzymatic hydrolysis reaction was carried out using E. coli-derived β-galactosidase (Sigma) in PBS solution (0.01 M, pH 7.3) at a reaction concentration of 10 μM for both A13 and A13bG, and for 6 hours at 37 °C after the addition of β-galactosidase (10 U/μM). The hydrolysis reaction was monitored by the high performance liquid chromatography (HPLC). The compound A13 and the prodrug A13bG without enzyme reaction were analyzed by HPLC at the same conditions as the references. The chromatographic column model: Waters Acquity BEH C4, the conditions: 0.04 ml/min, (water (0.1% acetic acid)): the acetonitrile gradient elution: 98:2 1 min, 5:95 13 min, 5:95 18 min, 2:98 20 min.

A short description of data set [4]: liver microsomal metabolic stability, canine. Here is the method:
(§2) Hepatic Microsomal Metabolic Stability
(§3) A13bGa1 was co-incubated with the mouse, rat, canine, monkey and human […] and the incubation medium at a final drug concentration of 1 μM in the incubation system for 60 minutes. Samples were taken and analyzed at time points 0, 15, 30, 45 and 60 minutes during the incubation. The reaction was terminated by adding an amount of acetonitrile solution containing the internal standard. […] The residual percentage, half-life, intrinsic clearance, amplified clearance, hepatic clearance and hepatic extraction ratio were determined. The entire experiment was performed in triplicate. All data calculations were performed by Microsoft Excel software. Peak areas were detected by extracting the ionic spectrum. The in vitro half-life (t1/2) of the parent compound was detected by fitting the natural logarithm of the percentage elimination of the parent compound linearly to time.
(§4) The in vitro intrinsic clearance (in μL/min/mg protein) was calculated using the following equation: in vitro CLint=kV/N
(§5) The amplified clearance (in mL/min/kg) was calculated using the following equation: Amplified CLint=kV/N×the amplification factor
(§6) The hepatic clearance (in mL/min/kg) was calculated using the following equation: The predicted hepatic CLH=(Q×Fu/RB×the amplified CLint)/(Q+Fu/RB×the amplified CLint) • V=the incubation volume per well (0.2 mL); • N=the total amount of protein (mg) • Q=the hepatic blood flow (mL/min/kg) • Fu=the plasma free rate (assumed to be 1) • RB=the whole blood partition coefficient (assumed to be 1)
(§7) The hepatic uptake rate was calculated using the following equation:
(§8) The hepatic extraction ratio (ER)=(the predicted hepatic CLH)/Q

Data set [5] has as its system BJ cells (human skin fibroblast cell line). The data set can be described thus: in vitro killing of induced senescent BJ cells (CCK-8). Format: cell-based. Particulars: human skin-derived fibroblasts, FIG. 3D.
From the text: as §1

Data set [6] is described as follows: liver microsomal metabolic stability, rat. Here is the method:
as §2, §3, §4, §5, §6, §7, §8
Background: Liver microsomes are vesicles of endoplasmic reticulum, rich in cytochrome P450 enzymes.

Data set [7] can be described thus: plasma metabolic stability, rat. Format: in vitro ADME. Particulars: 120 min. How it is done:
(§9) Plasma Metabolic Stability
(§10) Termination of the reaction was accomplished by the addition of 3× volume of acetonitrile and centrifugation at 16000 g for 20 minutes. The supernatant was taken for a LC-MS/MS analysis. The chromatographic column: Waters XSelect HSS T3; the flow rate: 500 μL/min; the eluent: A, water (0.1% formic acid); B, acetonitrile (0.1% formic acid); the gradient elution: 0-1.5 min, 5% B, 1.5-9 min, 5%-80% B, 9-12 min, 80%-100% B, 12-14 min, 100% B, 14-14.3 min, 100%-5% B, 14.3-15 min, 5% B.

Data set [8] in a line: plasma metabolic stability, all species. Format: in vitro ADME. Particulars: human, monkey, canine, rat, and mouse; preliminary test. How it is done:
as §9, §10

The nature of data set [9]: liver microsomal metabolic stability, mouse. How it is done: as §2, §3, §4, §5, §6, §7, §8

E. coli-derived β-galactosidase, sequence (P00722 whole entry): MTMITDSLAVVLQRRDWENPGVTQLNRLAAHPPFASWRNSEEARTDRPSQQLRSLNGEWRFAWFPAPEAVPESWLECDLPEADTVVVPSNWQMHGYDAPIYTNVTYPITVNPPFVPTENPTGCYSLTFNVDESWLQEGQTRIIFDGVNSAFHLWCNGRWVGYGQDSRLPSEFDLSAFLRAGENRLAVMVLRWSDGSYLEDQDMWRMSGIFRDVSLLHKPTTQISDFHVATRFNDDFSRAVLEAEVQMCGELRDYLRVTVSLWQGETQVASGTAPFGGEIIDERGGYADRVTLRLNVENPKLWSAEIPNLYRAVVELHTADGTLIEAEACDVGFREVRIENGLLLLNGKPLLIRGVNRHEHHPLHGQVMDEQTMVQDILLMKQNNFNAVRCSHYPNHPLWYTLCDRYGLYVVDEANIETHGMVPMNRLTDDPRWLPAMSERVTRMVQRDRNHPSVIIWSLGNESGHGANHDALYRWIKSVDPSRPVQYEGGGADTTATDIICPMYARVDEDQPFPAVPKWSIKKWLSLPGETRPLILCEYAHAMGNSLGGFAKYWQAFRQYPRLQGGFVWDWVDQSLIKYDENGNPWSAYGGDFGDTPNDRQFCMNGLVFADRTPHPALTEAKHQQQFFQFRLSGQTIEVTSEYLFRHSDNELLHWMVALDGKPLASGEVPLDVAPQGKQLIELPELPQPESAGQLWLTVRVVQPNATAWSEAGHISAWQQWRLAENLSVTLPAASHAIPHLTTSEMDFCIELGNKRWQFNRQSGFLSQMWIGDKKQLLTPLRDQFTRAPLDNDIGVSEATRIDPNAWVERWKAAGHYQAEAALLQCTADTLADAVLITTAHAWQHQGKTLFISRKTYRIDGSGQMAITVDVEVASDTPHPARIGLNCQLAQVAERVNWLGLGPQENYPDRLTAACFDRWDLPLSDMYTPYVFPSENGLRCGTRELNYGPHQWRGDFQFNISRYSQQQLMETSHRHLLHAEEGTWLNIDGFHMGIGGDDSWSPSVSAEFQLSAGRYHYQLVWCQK

On to `Cc1c(-c2ccc(N3CCc4cccc(C(=O)Nc5nc6ccccc6s5)c4C3)nc2C(=O)O)cnn1CC12CC3CC(CC(C3)C1)C2` [Compound A13, 3-[1-(adamantan-1-ylmethyl)-5-methylpyrazol-4-yl]-6-{8-[(1,3-benzothiazol-2-yl)carbamoyl]-3,4-dihydro-1H-isoquinolin-2-yl}pyridine-2-carboxylic acid], for which the “status and clinical manifestations (abnormalities)” value in [1] (5 mg/kg and 20 mg/kg, 3 consecutive weeks, FIG. 4D) was “depilated, dispirited and in poor state; also recorded: hair loss and depression”. For the same molecule, the “mice depilated, dispirited and in poor state” value in [1] (5 mg/kg dose group) and in data set [1] (20 mg/kg dose group) was 2 out of 4 each time.

For the molecule `Cc1c(-c2ccc(N3CCc4cccc(C(=O)Nc5nc6ccccc6s5)c4C3)nc2C(=O)OCc2ccc(O[C@@H]3O[C@H](CO)[C@H](O)[C@H](O)[C@H]3O)c([N+](=O)[O-])c2)cnn1CC12CC3CC(CC(C3)C1)C2` [Compound A13bGa1], the “killing of the senescent cells, efficiency and selectivity” value in data set [2] was “highly efficient and selective in killing the senescent cells”; in data set [5], “highly efficient and selective in killing the senescent cells”. Moreover, the “hydrolysis under the action of β-gal enzyme, release of the parent compound A13” value in data set [3] is “hydrolysed under the action of β-gal enzyme to release the parent compound A13”. Moreover, the “The hepatic extraction ratio (E)” value in data set [4] (canine) is reported as 0.70; in [6], 0.34; in data set [9], 0.40. Also, the “The intrinsic clearance in vitro Clint” value is 29.31 μL/min/mg protein in [4] (canine, 1 μM, 60 min); 15.81 μL/min/mg protein in data set [6] (1 μM, 60 min); 13.79 μL/min/mg protein in data set [9] (1 μM, 60 min). The “The predicted intrinsic hepatic clearance Clint” value in data set [4] (canine, Fu and RB assumed to be 1) is 21.72 mL/min/kg; in [6] (Fu and RB assumed to be 1), 18.72 mL/min/kg; in [9] (Fu and RB assumed to be 1) it was 36.24 mL/min/kg. In addition, the CLint scaled at 1 µM came to 73.1 mL/min/kg in [4] (dog, microsomes); 28.3 mL/min/kg in data set [6] (microsomes); 60.7 mL/min/kg in data set [9] (microsomes). For the same molecule, the half-life at 1 h, 1 µM was 0.788 h in data set [4] (dog, microsomes); 1.46 h in data set [6] (microsomes); 1.68 h in [9] (microsomes). In addition, the metabolised at 2 h, 10 µM in data set [7] (10 μM prodrug, read-out: The peak area after normalisation at minute 120, oxidative dehydrogenation metabolite) was 0.13%. Moreover, the remaining at 2 h, 10 µM in [7] (10 μM, read-out: The peak area after normalisation at minute 120, initial drug) was 99.9%. In addition, the “stability in the plasma” value in [8] is recorded as “highly stable”.

(Values after patent US20260345582A1, “PRODRUG FOR ANTI-AGING RELATED DISEASES AND USE METHOD THEREOF” (Beijing SunCell Bio-Medical Co., Ltd., priority 2022, published 2026).)
